These results are taken from article PMC3852005, “Crystal Structures of the Human G3BP1 NTF2-Like Domain Visualize FxFG Nup Repeat Specificity” (PLoS ONE, 2013).

Where no end group is shown, it is not given here.

For assay [1], the target named is T1, G3BP1 1–139 Phe15Ala mutant (Homo sapiens, UniProt Q13283, F15A).
T1 construct: The expression vector for the G3BP1 1–139 Phe15Ala mutant was produced by GenScript Inc. (USA); His6 (thrombin-cleavable) (N, cleaved yes); made in house; host or cells: Escherichia coli BL21(DE3)
Nature of the assay: ITC, FxFG peptide binding to G3BP1 1–139 Phe15Ala mutant. The note with it: ITC (VP-ITC), 0.1 M NaCl and 0.1 M HEPES, pH 8, 20°C, aliquots of 15 µL peptide (4.1 mM) every 360 seconds, single experiment. Here is the method:
(§1) The three synthetic peptides, GQSPGFGQGGSV (referred to as FG), DSGGLFGSK (GLFG) and DSGFSFGSK (FxFG), were obtained as more than 98% pure lyophilized chloride salts from Caslo Laboratory ApS, Denmark.
Data for the Phe15Ala G3BP1 mutant were collected in a single experiment on a VP-ITC (MicroCal) instrument using buffer conditions as for the wildtype. Aliquots of 15 µL peptide (4.1 mM) were injected into the protein sample every 360 seconds at 20°C.
A general note: Isothermal titration calorimetry measures the heat released or taken up as one component is titrated into another.

The target of assay [2] is T2, G3BP2a NTF2-like domain (G3BP2a 1–139) (Homo sapiens, UniProt Q9UN86).
T2 construct: His6 (thrombin-cleavable) (N, cleaved yes); made in house; host or cells: Escherichia coli BL21(DE3)
T2 sequence (Q9UN86 1-139): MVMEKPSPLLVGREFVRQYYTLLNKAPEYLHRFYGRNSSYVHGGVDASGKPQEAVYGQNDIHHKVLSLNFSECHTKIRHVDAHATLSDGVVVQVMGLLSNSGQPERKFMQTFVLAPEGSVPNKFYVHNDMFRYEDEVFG
Nature of the assay: ITC, Nup peptide binding to G3BP2a NTF2-like domain (1–139). The note with it: 0.1 M NaCl and 0.1 M HEPES, pH 8, 25°C, repeated three times; for heat changes on titration (ITC): titration of peptide into G3BP2a 1–139 (data not shown), ITC200, aliquots of 2 µL peptide (5.2 mM). The method, then:
as §1
(§2) ITC measurements for the wild type NTF2-like domain were performed with an ITC200 titration calorimeter (MicroCal). Data analysis was done using the Origin software. Protein samples were dialyzed against 0.1 M NaCl and 0.1 M HEPES, pH 8, and passed through 0.22 µm centrifugal filter units (Millipore) before the experiments. Peptides were solubilized in the dialysis buffer and the pH adjusted before filtration. In each experiment, aliquots of 2 µL peptide (5.2 mM) were injected into the sample cell every 180 seconds at 25°C. Background measurements were performed with buffer injected into the protein solution and peptides injected into the buffer solution. The concentrations of the peptides were determined by amino acid analysis (Department of Systems Biology, DTU, Denmark). Experiments were repeated three times and the results given as mean ± standard deviation.

Assay [3] deals with T3, human G3BP1 NTF2-like domain (G3BP1 1–139) (Homo sapiens, UniProt Q13283).
T3 construct: His6 (thrombin-cleavable) (N, cleaved yes); made in house; host or cells: Escherichia coli BL21(DE3)
Nature of the assay: ITC, Nup peptide binding to G3BP1 NTF2-like domain (1–139). The note with it: 0.1 M NaCl and 0.1 M HEPES, pH 8, 25°C, repeated three times; for heat changes on titration (ITC): titration of peptide into G3BP1 1–139, ITC200, aliquots of 2 µL peptide (5.2 mM). Here is the method:
as §1, §2

The next assay has as its target T4, FxFG Nup repeat peptide (also: chloride salt).
T4 chain: DSGFSFGSK
Nature of the assay: ITC.

T3 sequence (Q13283 1-139): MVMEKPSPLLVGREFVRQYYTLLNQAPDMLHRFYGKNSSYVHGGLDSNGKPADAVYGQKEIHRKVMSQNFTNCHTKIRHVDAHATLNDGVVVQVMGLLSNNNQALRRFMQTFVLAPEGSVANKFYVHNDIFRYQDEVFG
T1 sequence (Q13283 1-139 F15A): as the sequence (Q13283 1-139) above, with F15A counted along it

What is called Kd is a measure of binding affinity in units of concentration. With DSGFSFGSK [FxFG, DSGFSFGSK], the dissociation constant Kd was determined as 670 µM in assay [1]; 114 ± 2 µM in assay [2] (ITC (ITC200), G3BP2a NTF2-like domain, aliquots of 2 µL peptide (5.2 mM) every 180 seconds, mean ± standard deviation, data not shown); 115 ± 3 µM in assay [3] (ITC (ITC200), G3BP1 1–139, aliquots of 2 µL peptide (5.2 mM) every 180 seconds, one-binding-site per chain model, mean ± standard deviation).

Take “DSGGLFGSK [synthetic nucleoporin GLFG repeat peptide, more than 98% pure, from Caslo Laboratory]”: the “heat changes on titration (ITC)” value in assay [2] and in assay [3] was “did not result in significant heat changes” throughout.

“GQSPGFGQGGSV [synthetic nucleoporin FG repeat peptide, more than 98% pure, from Caslo Laboratory]”: the “heat changes on titration (ITC)” value in assay [2] and in assay [3] was “did not result in significant heat changes” throughout.

B1: G3BP2a NTF2-like domain 1-139 (protein)
chain: T2 sequence (Q9UN86 1-139)
As to B1, in the assay with FxFG Nup repeat peptide, the Kd is 114 µM.
